Assay [1] concerns the target T1, Aurora-B (Homo sapiens, UniProt Q96GD4).
T1 construct: 6-histidine; made in house; host or cells: Spodoptera frugiperda Sf21 insect cells (baculovirus)
The assay is described as follows: In vitro Aurora-B kinase inhibition test. The class given is biochemical. Conditions: recombinant Aurora-B, 33P-ATP peptide substrate, 60 minutes room temperature; read-out: concentration giving 50% inhibition of enzyme activity. The source says:
(b) In Vitro Aurora-B Kinase Inhibition Test
This assay determines the ability of a test compound to inhibit serine-threonine kinase activity. DNA encoding Aurora-B may be obtained by total gene synthesis or by cloning. This DNA may then be expressed in a suitable expression system to obtain polypeptide with serine-threonine kinase activity. In the case of Aurora-B, the coding sequence was isolated from cDNA by polymerase chain reaction (PCR) and cloned into the pFastBac system in a manner similar to that described above for Aurora-A (i.e. to direct expression of a 6-histidine tagged Aurora-B protein).
For the large scale expression of Aurora-B kinase activity, Sf21 insect cells were grown at 28° C. in TC100 medium supplemented with 10% foetal calf serum (Viralex) and 0.2% F68 Pluronic (Sigma) on a Wheaton roller rig at 3 r.p.m. When the cell density reached 1.2×10^6 cells ml^−1 they were infected with plaque-pure Aurora-B recombinant virus at a multiplicity of infection of 1 and harvested 48 hours later. All subsequent purification steps were performed at 4° C. […]

Assay [2] concerns the target T2, Aurora-A (Homo sapiens, UniProt O14965).
T2 construct: made in house; host or cells: Spodoptera frugiperda Sf21 insect cells (baculovirus)
T2 sequence (O14965 1-403): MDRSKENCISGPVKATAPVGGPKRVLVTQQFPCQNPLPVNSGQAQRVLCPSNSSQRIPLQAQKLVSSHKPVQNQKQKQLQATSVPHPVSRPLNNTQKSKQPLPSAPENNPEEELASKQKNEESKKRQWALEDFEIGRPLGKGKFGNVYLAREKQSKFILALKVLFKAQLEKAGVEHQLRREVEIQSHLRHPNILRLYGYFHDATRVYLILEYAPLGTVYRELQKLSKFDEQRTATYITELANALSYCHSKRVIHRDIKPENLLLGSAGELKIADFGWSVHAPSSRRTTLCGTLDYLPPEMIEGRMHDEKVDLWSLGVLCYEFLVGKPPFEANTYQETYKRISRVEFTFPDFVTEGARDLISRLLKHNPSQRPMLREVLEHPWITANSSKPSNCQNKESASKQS
The assay is described as follows: In vitro Aurora-A kinase inhibition test. The class given is biochemical.

For assay [3], the system named is SW620 cells. The assay is described as follows: In vitro cell cycle analysis assay (FACS DNA content). In kind it is cell-based, human. Conditions: 24 hours with compound. The method, then: (d) In Vitro Cell Cycle Analysis Assay
This assay determines the ability of a test compound to arrest cells in specific phases of the cell cycle. Many different mammalian cell lines could be used in this assay and SW620 cells are included here as an example. SW620 cells were seeded at 7×10^5 cells per T25 flask (Costar) in 5 ml L-15 (5% FCS, 1% L-glutamine). Flasks were then incubated overnight in a humidified 37° C. incubator with 5% CO2. The following day, 5 μl of L-15 (5% FCS, 1% L-glutamine) carrying the appropriate concentration of test compound solubilised in DMSO was added to the flask. A no compound control treatments was also included (0.5% DMSO). The cells were then incubated for a defined time (24 hours) with compound. […]
Each sample was then syringed 10 times using 21-guage needle. The samples were then transferred to LPS tubes and DNA content per cell analysed by Fluorescence activated cell sorting (FACS) using a FACScan flow cytometer (Becton Dickinson). Typically 30,000 events were counted and recorded using CellQuest v1.1 software (Verity Software). Cell cycle distribution of the population was calculated using Modfit software (Verity Software) and expressed as percentage of cells with 2N (G0/G1), 2N-4N (S phase) and with 4N (G2/M) DNA content. […]

The subject of assay [4] is SW620 cells. The assay can be described thus: In vitro cell proliferation assay (BrdU incorporation). The class given is cell-based. Conditions: Homo sapiens, SW-620, 48 hours with compound, 2 hour BrdU labelling, read-out: concentration active in test (50% inhibition of BrdU incorporation). The text has this:
(c) In Vitro Cell Proliferation Assay
This and other assays can be used to determine the ability of a test compound to inhibit the growth of adherent mammalian cell lines, for example the human tumour cell line SW620 (ATCC CCL-227). This assay determines the ability of at test compound to inhibit the incorporation of the thymidine analogue, 5′-bromo-2′-deoxy-uridine (BrdlD into cellular DNA. SW620 or other adherent cells were typically seeded at 1×10^5 cells per well in L-15 media (GIBCO) plus 5% foetal calf serum, 1% L-glutamine (100 μl /well) in 96 well tissue culture treated 96 well plates (Costar) and allowed to adhere overnight. The following day the cells were dosed with compound (diluted from 10 mM stock in DMSO using L-15 (with 5% FCS, 1% L-glutamine). Untreated control wells and wells containing a compound known to give 100% inhibition of BrdU incorporation were included on each plate. After 48 hours in the presence/absence of test compound the ability of the cells to incorporate BrdU over a 2 hour labelling period was determined using a Boelringer (Roche) Cell Proliferation BrdU ELISA kit (cat. No. 1 647 229) according to manufacturers directions. […] The optical density of the wells was then determined at 690 nm wavelength using a Titertek Multiscan plate reader. […]

Results on one molecule are retold here after patent US20060058325A1, “Therapeutic quniazoline derivatives” (AstraZeneca AB, priority 2002, published 2006).

The structures appear in SMILES notation. pIC50: −log10 of the molar value.

T1 sequence (Q96GD4 whole entry): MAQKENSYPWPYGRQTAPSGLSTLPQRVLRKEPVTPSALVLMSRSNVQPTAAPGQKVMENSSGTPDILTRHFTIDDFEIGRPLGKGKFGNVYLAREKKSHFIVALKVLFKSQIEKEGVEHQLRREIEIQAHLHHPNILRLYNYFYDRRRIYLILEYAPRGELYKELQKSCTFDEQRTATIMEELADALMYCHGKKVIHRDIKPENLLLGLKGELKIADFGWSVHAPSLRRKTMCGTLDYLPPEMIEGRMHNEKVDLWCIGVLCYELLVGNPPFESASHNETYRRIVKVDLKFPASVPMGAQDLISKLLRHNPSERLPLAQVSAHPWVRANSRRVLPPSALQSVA

With `CCN(CCCOc1cc2ncnc(Nc3cnc(NC(=O)c4ccc(F)c(Cl)c4)nc3)c2cc1OC)CCOP(=O)(O)O` [Compound 24, 2-[(3-{[4-({2-[(3-chloro-4-fluorobenzoyl)amino]pyrimidin-5-yl}amino)-6-methoxyquinazolin-7-yl]oxy}propyl)(ethyl)amino]ethyl dihydrogen phosphate], the pIC50 in assay [1] was 7.91; in assay [2], 9.52; in assay [4] it was 6.52. In addition, the “concentration active in cell cycle analysis test” value in assay [3] was determined as 1.5 µM.
